Laboratory results taken from PubChem BioAssay AID1963865 (Molecular Pharmacology Branch, DTP, NCI, 2024).

Test system: KRAS PDC multicell spheroid viability
Assay: Anticancer human tumor 825966-067-R-J1-PDC patient-derived colon carcinoma cell line growth inhibition [KRAS2]
Conditions: for IC50: curve of first compound; for viability, T/C: stronger effect = lower value; active = viability on the fitted dose curve at most 10% of control; inactive = the rest
In short: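 Combination screen of spheroid viability in tumor-cell co-cultures with endothelial (HUVEC) and mesenchymal stem cell stroma. Each agent was tested in half-log dilutions, topping at clinical Cmax or at 10 microM without a known Cmax.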

[1] = second compound 0.0316 µM, first compound 0.000316 µM
[2] = second compound 0.0316 µM, first compound 0.001 µM
[3] = second compound 0.0316 µM, first compound 0.00316 µM
[4] = second compound 0.0316 µM, first compound 0.01 µM
[5] = second compound 0.0316 µM, first compound 0.0316 µM
[6] = second compound 0.0316 µM, first compound 0.1 µM
[7] = second compound 0.1 µM, first compound 0.000316 µM
[8] = second compound 0.1 µM, first compound 0.001 µM
[9] = second compound 0.1 µM, first compound 0.00316 µM
[10] = second compound 0.1 µM, first compound 0.01 µM
[11] = second compound 0.1 µM, first compound 0.0316 µM
[12] = second compound 0.1 µM, first compound 0.1 µM
[13] = second compound 0.316 µM, first compound 0.000316 µM
[14] = second compound 0.316 µM, first compound 0.001 µM
[15] = second compound 0.316 µM, first compound 0.00316 µM
[16] = second compound 0.316 µM, first compound 0.01 µM
[17] = second compound 0.316 µM, first compound 0.0316 µM
[18] = second compound 0.316 µM, first compound 0.1 µM
[19] = second compound 1 µM, first compound 0.000316 µM
[20] = second compound 1 µM, first compound 0.001 µM
[21] = second compound 1 µM, first compound 0.00316 µM
[22] = second compound 1 µM, first compound 0.01 µM
[23] = second compound 1 µM, first compound 0.0316 µM
[24] = second compound 1 µM, first compound 0.1 µM
[25] = second compound 3.16 µM, first compound 0.000316 µM
[26] = second compound 3.16 µM, first compound 0.001 µM
[27] = second compound 3.16 µM, first compound 0.00316 µM
[28] = second compound 3.16 µM, first compound 0.01 µM
[29] = second compound 3.16 µM, first compound 0.0316 µM
[30] = second compound 3.16 µM, first compound 0.1 µM
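Also: spheroids exposed to compounds for 7 days.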
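For viability, T/C in this document: 100% = DMSO vehicle control viability.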

CN(C)C/C=C/C(=O)Nc1cc2c(Nc3ccc(F)c(Cl)c3)ncnc2cc1O[C@H]1CCOC1 + C=CC(=O)N1CCN(c2nc(OCC3CCCN3C)nc3c2CCN(c2cccc4cccc(C)c24)C3)CC1CC#N
> 100 nM: IC50 (second compound 0.0316 µM) | IC50 (second compound 0.1 µM) | IC50 (second compound 0.316 µM) | IC50 (second compound 1 µM) | IC50 (second compound 3.16 µM)
inactive: viability, T/C [1] 92% | viability, T/C [2] 105% | viability, T/C [3] 86% | viability, T/C [4] 83.4% | viability, T/C [5] 94.5% | viability, T/C [6] 99.7% | viability, T/C [7] 114% | viability, T/C [8] 107% | viability, T/C [9] 100% | viability, T/C [10] 94.3% | viability, T/C [11] 86.8% | viability, T/C [12] 88% | viability, T/C [13] 100% | viability, T/C [14] 107% | viability, T/C [15] 74.8% | viability, T/C [16] 83.8% | viability, T/C [17] 77% | viability, T/C [18] 81.4% | viability, T/C [19] 94.7% | viability, T/C [20] 84.9% | viability, T/C [21] 89.3% | viability, T/C [22] 98.7% | viability, T/C [23] 107% | viability, T/C [24] 77.5% | viability, T/C [25] 111% | viability, T/C [26] 83.6% | viability, T/C [27] 87.5% | viability, T/C [28] 100% | viability, T/C [29] 67.7% | viability, T/C [30] 114%

CC(C)n1nc(-c2ccc3oc(N)nc3c2)c2c(N)ncnc21 + C=CC(=O)N1CCN(c2nc(OCC3CCCN3C)nc3c2CCN(c2cccc4cccc(C)c24)C3)CC1CC#N
9.07 nM: IC50 (second compound 3.16 µM)
> 100 nM: IC50 (second compound 0.0316 µM) | IC50 (second compound 0.1 µM) | IC50 (second compound 0.316 µM) | IC50 (second compound 1 µM)
inactive: viability, T/C [1] 111% | viability, T/C [2] 86.4% | viability, T/C [3] 116% | viability, T/C [4] 153% | viability, T/C [5] 113% | viability, T/C [6] 141% | viability, T/C [7] 81.6% | viability, T/C [8] 106% | viability, T/C [9] 119% | viability, T/C [10] 162% | viability, T/C [11] 113% | viability, T/C [12] 108% | viability, T/C [13] 92% | viability, T/C [14] 97.3% | viability, T/C [15] 129% | viability, T/C [16] 154% | viability, T/C [17] 115% | viability, T/C [18] 94.7% | viability, T/C [19] 89.3% | viability, T/C [20] 108% | viability, T/C [21] 105% | viability, T/C [22] 154% | viability, T/C [23] 98.7% | viability, T/C [24] 85.2% | viability, T/C [25] 106% | viability, T/C [26] 84.9% | viability, T/C [27] 116% | viability, T/C [28] 39.9% | viability, T/C [29] 64.4% | viability, T/C [30] 31.2%

COC(=O)c1ccc2c(C(=Nc3ccc(N(C)C(=O)CN4CCN(C)CC4)cc3)c3ccccc3)c(O)[nH]c2c1 + COc1cc2nc(C)nc(NC(C)c3cc(N)cc(C(F)(F)F)c3)c2cc1OC1CCOC1
1670 nM: IC50 (second compound 0.1 µM)
592 nM: IC50 (second compound 3.16 µM)
1570 nM: IC50 (second compound 0.316 µM)
inactive: viability, T/C [11] 89.6% | viability, T/C [12] 95.6% | viability, T/C (second compound 0.1 µM, first compound 0.316 µM) 81.4% | viability, T/C (second compound 0.1 µM, first compound 1 µM) 92.9% | viability, T/C [17] 94.4% | viability, T/C [18] 79.9% | viability, T/C (second compound 0.316 µM, first compound 0.316 µM) 82.4% | viability, T/C (second compound 0.316 µM, first compound 1 µM) 81.8% | viability, T/C [23] 88.1% | viability, T/C [24] 98.1% | viability, T/C (second compound 1 µM, first compound 0.316 µM) 92.3% | viability, T/C (second compound 1 µM, first compound 1 µM) 42.1% | viability, T/C [29] 95% | viability, T/C [30] 103% | viability, T/C (second compound 3.16 µM, first compound 0.316 µM) 101% | viability, T/C (second compound 10 µM, first compound 0.0316 µM) 9.43%
836 nM: IC50 (second compound 1 µM)
< 31.6 nM: IC50 (second compound 10 µM)
active: viability, T/C (second compound 0.1 µM, first compound 3.16 µM) 0.3% | viability, T/C (second compound 0.1 µM, first compound 10 µM) 0.16% | viability, T/C (second compound 0.316 µM, first compound 3.16 µM) 0.33% | viability, T/C (second compound 0.316 µM, first compound 10 µM) 0.13% | viability, T/C (second compound 1 µM, first compound 3.16 µM) 0.16% | viability, T/C (second compound 1 µM, first compound 10 µM) 0.13% | viability, T/C (second compound 3.16 µM, first compound 1 µM) 8.39% | viability, T/C (second compound 3.16 µM, first compound 3.16 µM) 0.1% | viability, T/C (second compound 3.16 µM, first compound 10 µM) 2% | viability, T/C (second compound 10 µM, first compound 0.1 µM) 10.3% | viability, T/C (second compound 10 µM, first compound 0.316 µM) 1.07% | viability, T/C (second compound 10 µM, first compound 1 µM) 0.34% | viability, T/C (second compound 10 µM, first compound 3.16 µM) 0.13% | viability, T/C (second compound 10 µM, first compound 10 µM) 0.58%
